What all share (type): cell-based
The test system of assay [1] is VCaP cells. In words: VCaP growth inhibition assay. Conditions: 30 pM R1881, 9 days, CTG. The gist of the method:
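VCaP cells in phenol red-free DMEM/5% CSS, pre-incubated 72 h, then stimulated with R1881 (final 30 pM) and treated with 1:5 serial dilutions (final 100 nM to 10 fM) for 9 days at 37 °C. Viability by CellTiter-Glo luminescence; IC50 from 4-parameter logistic fit of RLU vs concentration.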

For assay [2], the system named is HEK-293 cells. The assay can be described thus: HEK-293 growth inhibition assay. Conditions: 3 days, CTG. On the procedure:
Cluster plates are returned to the incubator (37*C/5% CO2) for 24 hours prior to treatment. […] Cluster plates are returned to the incubator for 3 days.
After the 3-day treatment period, 100 uL media was removed from each well by aspiration and 100 uL room temperature CTG reagent (Promega Cat #G7573) is added back to each well. The cluster plates are placed on a shaker and incubated at room temperature for 20 minutes. Following this shaking/incubation, cluster plates are read on a luminometer (BMG ClarioStar). IC50 values are obtained by graphing the RLU data vs. compound concentration with nonlinear regression 4-parameter logistic curves (GraphPad Prism).

Assay [3] deals with AR / CBP ternary complex. The assay can be described thus: Ternary complex formation assay (sandwich ELISA, AR capture / CBP detection) in VCaP cell lysates. Conditions: 1.5 hours treatment, sandwich ELISA (AR capture, CBP or p300 detection). The method in brief:
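VCaP cells (50K/well, 5% charcoal-stripped FBS, ≥3 days) treated with bifunctional compound for 1.5 h, then lysed 30 min at 4 °C. AR captured on anti-AR (AR 441) plates; bound CBP or p300 detected by rabbit mAb plus HRP secondary. QuantaRed chemifluorescence read at ex 570/em 585, immediately and at 5 and 15 min.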

Bounds are passed on as bounds.

By IC50 is commonly meant the concentration needed to halve the response being measured. As usually defined, the EC50 is the concentration that produces a half-maximal response.

Regarding `CC(=O)N1CCc2c(c(N3CCCc4cc(-c5cnn(C)c5)c(C(F)F)cc43)nn2C2CN(C(=O)CN3CCN(c4ncc(C(=O)NC5C(C)(C)C(Oc6ccc(C#N)c(Cl)c6)C5(C)C)cn4)CC3)C2)C1` (stereo not drawn) [Compound 65, 2-[4-[2-[3-[5-acetyl-3-[7-(difluoromethyl)-6-(1-methylpyrazol-4-yl)-3,4-dihydro-2H-quinolin-1-yl]-6,7-dihydro-4H-pyrazolo[4,3-c]pyridin-1-yl]azetidin-1-yl]-2-oxo-ethyl]piperazin-1-yl]-N-[3-(3-chloro-4-cyano-phenoxy)-2,2,4,4-tetramethyl-cyclobutyl]pyrimidine-5-carboxamide], the half-maximal inhibitory concentration (IC50) is not above 0.1 nM in assay [1] and more than 10000 nM in assay [2]. The compound also showed a 50% effective concentration (EC50) in assay [3] of less than 1 nM.
Taken in the same sequence, the figures for `CC(=O)N1CCc2c(c(N3CCCc4cc(-c5cnn(C)c5)c(C(F)F)cc43)nn2C2CCN(C[C@@H]3CCN(c4ncc(C(=O)NC5C(C)(C)C(Oc6ccc(C#N)c(Cl)c6)C5(C)C)cn4)C[C@@H]3C)CC2)C1` (stereo partly drawn) [Compound 275, 2-[(3R,4R)-4-[[4-[5-acetyl-3-[7-(difluoromethyl)-6-(1-methylpyrazol-4-yl)-3,4-dihydro-2H-quinolin-1-yl]-6,7-dihydro-4H-pyrazolo[4,3-c]pyridin-1-yl]-1-piperidyl]methyl]-3-methyl-1-piperidyl]-N-[3-(3-chloro-4-cyano-phenoxy)-2,2,4,4-tetramethyl-cyclobutyl]pyrimidine-5-carboxamide] were not above 0.1 nM, more than 1000 nM and less than 1 nM.
The matching figures for `CC(=O)N1CCc2c(c(N3CCCc4cc(-c5cnn(C)c5)c(C(F)F)cc43)nn2C2CCN(C(=O)CN3CCN(c4ncc(C(=O)NC5C(C)(C)C(Oc6ccc(C#N)c(Cl)c6)C5(C)C)cn4)CC3)C2)C1` (stereo not drawn) [Compound 64, 2-[4-[2-[3-[5-acetyl-3-[7-(difluoromethyl)-6-(1-methylpyrazol-4-yl)-3,4-dihydro-2H-quinolin-1-yl]-6,7-dihydro-4H-pyrazolo[4,3-c]pyridin-1-yl]pyrrolidin-1-yl]-2-oxo-ethyl]piperazin-1-yl]-N-[3-(3-chloro-4-cyano-phenoxy)-2,2,4,4-tetramethyl-cyclobutyl]pyrimidine-5-carboxamide]: 0.1 to 1 nM, more than 10000 nM and less than 1 nM.
In the case of `CC(=O)N1CCc2c(c(Nc3ccc(-c4cnn(C)c4)cc3F)nn2C2CCN(C(=O)CN3CCN(c4ncc(C(=O)NC5C(C)(C)C(Oc6ccc(C#N)c(Cl)c6)C5(C)C)cn4)CC3)CC2)C1` (stereo not drawn) [Compound 66, 2-[4-[2-[4-[5-acetyl-3-[2-fluoro-4-(1-methylpyrazol-4-yl)anilino]-6,7-dihydro-4H-pyrazolo[4,3-c]pyridin-1-yl]-1-piperidyl]-2-oxo-ethyl]piperazin-1-yl]-N-[3-(3-chloro-4-cyano-phenoxy)-2,2,4,4-tetramethyl-cyclobutyl]pyrimidine-5-carboxamide], the IC50 in assay [1] is 0.1 to 1 nM; in assay [2] it was more than 10000 nM. The compound also yielded an EC50 in assay [3] of less than 1 nM.
Taken in the same sequence, the figures for `CNC(=O)N1CCc2c(c(N3CCCc4cc(-c5cnn(C)c5)c(C(F)F)cc43)nn2C2CCN(C(=O)COCCCOCC3CCN(c4ncc(C(=O)NC5C(C)(C)C(Oc6ccc(C#N)c(Cl)c6)C5(C)C)cn4)CC3)CC2)C1` (stereo not drawn) [Compound 97, 1-[1-[2-[3-[[1-[5-[[3-(3-chloro-4-cyano-phenoxy)-2,2,4,4-tetramethyl-cyclobutyl]carbamoyl]pyrimidin-2-yl]-4-piperidyl]methoxy]propoxy]acetyl]-4-piperidyl]-3-[7-(difluoromethyl)-6-(1-methylpyrazol-4-yl)-3,4-dihydro-2H-quinolin-1-yl]-N-methyl-6,7-dihydro-4H-pyrazolo[4,3-c]pyridine-5-carboxamide] were not above 0.1 nM, more than 10000 nM and less than 1 nM.

These data come from patent US20250129070A1, “BIFUNCTIONAL ANDROGEN RECEPTOR COMPOUNDS” (priority 2023, published 2025).
